What was measured:
Format in all cases: in vivo, human
[1] = system: patients with stable coronary artery disease; assay: Aortic MRI measurements of arterial stiffness (strain, distensibility, peak flow velocity); conditions: for Ascending aorta distensibility / Ascending aorta strain / Descending aorta distensibility / Descending aorta strain / Peak flow velocity: mean ± SD
Description: Full left ventricular short-axis stack of cine images was acquired during the interval between stress and rest first-pass perfusion acquisitions. Following administration of the top-up contrast dose (Gadovist 0.05 mmol/kg), aortic cine and phase-velocity encoding sequences were acquired at the level of the pulmonary artery bifurcation. LGE imaging was performed with a segmented phase-sensitive inversion recovery sequence.
CMR image collection, blinding, and handling were managed by an independent imaging contract-research organization (CRO; VirtualScopics, Inc., Rochester, NY, USA). The CMR quantitative analyses were performed by blinded academic readers with >3 years of CMR experience (D.C., A.R., and C.B.). Cine images for ventricular volumes and mass and myocardial perfusion images were manually contoured (QMass, Medis, Leiden, Netherlands). Myocardial blood flow (MBF) was derived from stress and rest perfusion images using a Fermi deconvolution method,[25] implemented in MATLAB.[26] Global MPR was calculated from the ratio of global MBF evaluated at stress and at rest (MPR = stress MBF/rest MBF). Global MBF was calculated by averaging the MBF (mL/g/min) for basal, mid, and apical short-axis left ventricular slices. Ascending and descending aortic strain and distensibility were derived from manually contoured end-diastolic and end-systolic aortic cine images. Aortic strain (AS, unit free fraction) = [maximum aortic lumen area − minimum aortic lumen area]/minimum aortic lumen area. Aortic distensibility (AD, mmHg^−^1) = aortic strain/pulse pressure. Ascending aortic peak flow velocity (m/s) was derived from manually contoured phase-velocity encoding sequence images (QFlow, Medis, Leiden, Netherlands). The presence or absence of myocardial scar was qualitatively assessed on the LGE images.
Model: Change from baseline was analysed using ANCOVA model including treatment as fixed effect and baseline as continuous covariate.

[2] = system: patients with stable coronary artery disease; assay: Applanation tonometry carotid-femoral pulse wave velocity (PWV); conditions: for PWV, absolute value: mean ± SD; for PWV, adjusted mean difference serelaxin versus placebo / PWV, change from baseline (adjusted mean): repeated measures ANCOVA
Description: Secondary endpoints included: the change from baseline in AIx and pulse wave velocity (PWV) assessed at the end of treatment, Day 30 and Day 180; aortic distensibility (assessed with CMR and PWV methods) at the end of treatment; pharmacokinetics and safety (adverse events, serious adverse events, and vital signs) of 48 h infusion of serelaxin 30 μg/kg/day. The changes in levels of circulating biomarkers of cardiorenal and vascular function during and after treatment with serelaxin were also assessed as part of the exploratory endpoints.
The applanation tonometry assessments were performed by blinded operators. Augmentation index [AIx = (augmentation pressure/pulse pressure) × 100], and carotid-femoral PWV were measured by applanation tonometry (Sphygmocor®, AtCor Medical, Australia) at a proximal (carotid artery) and a distal (femoral artery) site of the body, utilizing R-wave gated determination of the time interval between the two measurement points. An averaged carotid pressure waveform (from a 10 s recording) was converted into a corresponding central waveform using a validated transfer function (SphygmoCor®, AtCor, Australia).[27]^,[28]

[3] = system: hsTnT; assay: Plasma biomarker high-sensitivity troponin T; set-up: hs Troponin-T, geo-mean (95% CI): unit not given here
Description: Biomarkers reported include: N-terminal pro-brain natriuretic peptide (NT-proBNP), high-sensitivity troponin T (hsTnT) measured to assess myocardial safety; cystatin C measured to access renal function; the biologically active form of endothelin-1 (1–21), measured to assess vascular function. Venous blood samples were collected at 0 (pre-dose), 24, 48, and 54 h, Day 30, and Day 180. NT-proBNP, hsTnT, and cystatin C samples were collected in EDTA tubes while endothelin-1 samples were collected in EDTA tubes containing aprotinin. Plasma was immediately frozen at −70°C pending analysis in complete patient sets. Commercial biomarker kits were as follows: hsTnT from Roche Diagnostics GmbH, Germany; cystatin C from Gentian, Moss, Norway; and active endothelin-1 […] from Biomedica Medizinprodukte, Vienna, Austria.
For the biomarker analyses, baseline was defined as the pre-dose assessment on Day 1. Raw values as well as changes from baseline were summarized by treatment and time. Descriptive statistics included geometric mean and 95% CI. For geometric means of change from baseline, a ratio to baseline was used to determine percentage change by first calculating in the log domain and then back transforming using exponentiation.
Baseline corresponds to the value at day 1 pre-dose. For change from baseline, geometric mean and its CI are calculated for the value (post) to baseline ratio.

[4] = Serum serelaxin pharmacokinetics (ELISA, non-compartmental)
Description: Blood samples (approximately 2 mL) for pharmacokinetic (PK) evaluation were collected at 0 (pre-dose), 24, 48, 50, and 54 h, and Day 30. Serum serelaxin concentration was determined by an enzyme-linked immunosorbent assay, developed and validated based upon a commercially available kit (Quantikine ELISA kit, R&D systems, MN, USA).[29] The PK parameters were calculated using non-compartmental methods that included steady-state concentration (Css) and systemic clearance (CL). Css was estimated using the serum concentration determined at 48 h, while CL was estimated using the rate of infusion and Css for each patient.

[5] = baseline to day 3, ANCOVA, n=23

Substance: Serelaxin
- Ascending aorta distensibility ([1]; 0 h (pre-dose baseline), n=24): 0.002 ± 0.002 (24) mm/Hg
- Ascending aorta strain ([1]; 0 h (pre-dose baseline), n=24): 0.12 ± 0.06 (24)
- Descending aorta distensibility ([1]; 0 h (pre-dose baseline), n=24): 0.002 ± 0.001 (24) mm/Hg
- Descending aorta strain ([1]; 0 h (pre-dose baseline), n=24): 0.16 ± 0.06 (24)
- Peak flow velocity ([1]; 0 h (pre-dose baseline), n=24): 128.00 ± 66.69 (24) cm/sec
- Ascending aorta distensibility ([1]; 47 h post-dose, n=23): 0.002 ± 0.001 (23) mm/Hg
- Ascending aorta strain ([1]; 47 h post-dose, n=23): 0.12 ± 0.06 (23)
- Descending aorta distensibility ([1]; 47 h post-dose, n=23): 0.002 ± 0.001 (23) mm/Hg
- Descending aorta strain ([1]; 47 h post-dose, n=23): 0.17 ± 0.05 (23)
- Peak flow velocity ([1]; 47 h post-dose, n=23): 127.98 ± 60.76 (23) cm/sec
- CMR-derived parameters of aortic stiffness, change from baseline to 47 h compared with placebo ([1]; ascending/descending aorta strain and distensibility, ascending aortic peak flow velocity, P > 0.05 for all): no significant change
- Ascending aorta distensibility, adjusted mean difference serelaxin versus placebo ([1]; baseline to day 3, ANCOVA): -0.0001 mm/Hg
- Ascending aorta strain, adjusted mean difference serelaxin versus placebo ([1]; baseline to day 3, ANCOVA): 0.01
- Descending aorta distensibility, adjusted mean difference serelaxin versus placebo ([1]; baseline to day 3, ANCOVA): -0.0001 mm/Hg
- Descending aorta strain, adjusted mean difference serelaxin versus placebo ([1]; baseline to day 3, ANCOVA): 0.01
- Peak flow velocity, adjusted mean difference serelaxin versus placebo ([1]; baseline to day 3, ANCOVA): 13.71 cm/sec
- Ascending aorta distensibility, change from baseline (adjusted mean) [1, 5]: -0.0001 mm/Hg
- Ascending aorta strain, change from baseline (adjusted mean) [1, 5]: 0.01
- Descending aorta distensibility, change from baseline (adjusted mean) [1, 5]: 0.0001 mm/Hg
- Descending aorta strain, change from baseline (adjusted mean) [1, 5]: 0.011
- Peak flow velocity, change from baseline (adjusted mean) [1, 5]: 10.12 cm/sec
- PWV, absolute value ([2]; 0 h (pre-dose baseline), n=22): 7.45 ± 2.05 (22) meters/second
- PWV, adjusted mean difference serelaxin versus placebo ([2]; 24 h): -0.157 meters/second
- PWV, adjusted mean difference serelaxin versus placebo ([2]; 24 h, listed as serelaxin): −0.16 meters/second
- PWV, change from baseline (adjusted mean) ([2]; 24 h, n=19): -0.54 meters/second
- PWV, absolute value ([2]; 24 h post-dose, n=19): 7.05 ± 1.88 (19) meters/second
- PWV, adjusted mean difference serelaxin versus placebo ([2]; 47 h): -0.34 meters/second
- PWV, change from baseline (adjusted mean) ([2]; 47 h, n=21): -0.26 meters/second
- PWV, absolute value ([2]; 47 h post-dose, n=22): 7.20 ± 1.92 (22) meters/second
- PWV, absolute value ([2]; Day 30, n=23): 7.99 ± 1.82 (23) meters/second
- PWV, adjusted mean difference serelaxin versus placebo ([2]; Day 30): -0.06 meters/second
- PWV, adjusted mean difference serelaxin versus placebo ([2]; Day 30, listed as serelaxin): −0.06 meters/second
- PWV, change from baseline (adjusted mean) ([2]; Day 30, n=20): 0.35 meters/second
- PWV, absolute value ([2]; Day 180, n=23): 8.34 ± 2.11 (23) meters/second
- PWV, adjusted mean difference serelaxin versus placebo ([2]; Day 180): 0.12 meters/second
- PWV, change from baseline (adjusted mean) ([2]; Day 180, n=20): 0.93 meters/second
- hs Troponin-T change from baseline, geometric mean ratio to baseline (95% CI) ([3]; 24 h, n=27): 0.90 (0.80, 1.01)
- hs Troponin-T change from baseline, geometric mean ratio to baseline (95% CI) ([3]; 48 h, n=28): 0.87 (0.79, 0.95)
- hs Troponin-T change from baseline, geometric mean ratio to baseline (95% CI) ([3]; 54 h, n=27): 1.02 (0.85, 1.24)
- hs Troponin-T change from baseline, geometric mean ratio to baseline (95% CI) ([3]; Day 30, n=29): 0.89 (0.78, 1.02)
- hs Troponin-T change from baseline, geometric mean ratio to baseline (95% CI) ([3]; Day 180, n=29): 1.09 (0.91, 1.31)
- hs Troponin-T, geo-mean (95% CI) ([3]; plasma, 0 h (pre-dose baseline), n=29): 0.0076 (0.0057, 0.0102)
- hs Troponin-T, geo-mean (95% CI) ([3]; plasma, 24 h, n=27): 0.0064 (0.0049, 0.0084)
- hs Troponin-T, geo-mean (95% CI) ([3]; plasma, 48 h, n=28): 0.0066 (0.0049, 0.0089)
- hs Troponin-T, geo-mean (95% CI) ([3]; plasma, 54 h, n=27): 0.0079 (0.0057, 0.0110)
- hs Troponin-T, geo-mean (95% CI) ([3]; plasma, Day 30, n=29): 0.0068 (0.0053, 0.0088)
- hs Troponin-T, geo-mean (95% CI) ([3]; plasma, Day 180, n=29): 0.0083 (0.0066, 0.0105)
- hsTnT geometric mean at baseline ([3]; plasma, pre-dose baseline, serelaxin group): 7.6 ng/L
- Systemic clearance (CL), geometric mean ([4]; estimated from rate of infusion and Css, 48 h IV infusion 30 µg/kg/day): 1.38 mL/min/kg
- Steady-state serum concentration (Css), geometric mean ([4]; serum concentration at 48 h of 48 h IV infusion 30 µg/kg/day, ELISA, non-compartmental): 15.1 ng/mL

— paper PMC7797213, “Vascular effects of serelaxin in patients with stable coronary artery disease: a randomized placebo-controlled trial” (Cardiovascular Research, 2020)
